Calls of active or inactive are those of the source. The rule behind the calls is not given here.
Biological target: Caspase-6 (Homo sapiens) (UniProt P55212)
Experiment: inhibition of CASP6 peptide cleavage – biochemical, VEID-R110 fluorescence, cherry-pick, dose response (AID 720632)
Conditions: caspase-6, VEID-R110 fluorogenic substrate

Caspase-6 (Homo sapiens), sequence (P55212 24-179 limits assumed): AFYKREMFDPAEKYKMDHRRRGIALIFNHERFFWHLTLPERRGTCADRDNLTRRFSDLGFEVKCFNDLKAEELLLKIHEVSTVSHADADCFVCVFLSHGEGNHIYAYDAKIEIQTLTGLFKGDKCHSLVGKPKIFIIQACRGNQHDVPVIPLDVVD
Caspase-6 (Homo sapiens), sequence (P55212 194-293 limits assumed): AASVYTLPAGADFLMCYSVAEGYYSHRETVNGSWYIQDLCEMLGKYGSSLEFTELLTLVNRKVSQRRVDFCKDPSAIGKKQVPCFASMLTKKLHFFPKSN

Structure (SMILES) | activity change, negative = inhibition (at 26 µM (top of the series)) | activity change, negative = inhibition (at 23.5 µM (top of the series))
COC(=O)[C@@H]1[C@@H](CO)[C@@H]2Cn3c(cccc3=O)[C@@H]2N1CC1CCOCC1 | inactive | 
CO[C@H]1CN(C)C(=O)c2cc(NC(=O)C3CC3)ccc2OC[C@H](C)N(C(=O)c2ccccc2)C[C@H]1C | inactive | 
O=C(O)c1cc([N+](=O)[O-])cc([N+](=O)[O-])c1N1CCN(c2cccc(C(F)(F)F)c2)CC1 | inactive | 
COc1ccc(N(C)S(=O)(=O)c2cccc(C(=O)NCC(c3cccs3)N(C)C)c2)cc1 (configuration not stated) | inactive | 
CN1CCN(c2ccc(CNC(=O)C3Cc4c(-c5ccc6c(c5)OCO6)ccnc4O3)cc2)CC1 (configuration not stated) | inactive | 
O=C(N/N=C/c1cccc(O)c1)c1ccccc1O | inactive | 
O=C(CCCn1c(=S)[nH]c2cc3c(cc2c1=O)OCO3)N1CCN(C2CCCCC2)CC1 | inactive | 
CCc1ccccc1OCC(=O)OCC(=O)N1CC(=O)Nc2ccccc21 | inactive | 
C=CCNc1nc(Nc2cc(Cl)ccc2OC)nc(OC)n1 | inactive | 
C=CCC(NCc1ccccc1)c1ccc(Cl)cc1 (configuration not stated) | inactive | 
COc1ccc2c(C#N)c3ccccn3c2c1 | inactive | 
O=Cc1cscc1[B-](F)(F)F | inactive | 
Cc1ccc(C(=O)O)cc1NC(=O)c1ccc2c(c1)C(=O)N(c1ccc([N+](=O)[O-])cc1)C2=O | inactive | 
COc1ccccc1C(=O)Nc1ccc2c(c1)OC[C@H](C)N(CC1CC1)C[C@H](C)[C@H](OC)CN(C)C2=O | inactive | 
CCCN1C[C@@H](C)[C@@H](OC)CN(C)C(=O)c2ccc(NC(=O)c3ccccc3)cc2OC[C@H]1C | inactive | 
O=C(COC(=O)c1ccc([N+](=O)[O-])o1)Nc1ccc(F)cc1 | inactive | 
O=c1[nH]c2ccc(F)cc2[nH]c1=O | inactive | 
O=C(COC(=O)c1ccc([N+](=O)[O-])o1)NC1CCCCC1 | inactive | 
O=C(NN=C1CCCC1)c1n[nH]c2c1CCC2 | inactive | 
Cc1noc(C)c1COc1ccccc1C(=O)N(C)CC(=O)Nc1ccc(F)c(F)c1F | inactive | 
CC1CCN(C(=O)Cn2cc(C(F)(F)F)ccc2=O)c2ccccc2S1 (configuration not stated) | inactive | 
C#CCOc1ccc(CNC[C@H]2O[C@@H](n3ccc(N)nc3=O)[C@H](O)[C@@H]2O)cc1 | inactive | 
O=C(NCC(c1ccco1)N1CCc2ccccc21)c1cccc([N+](=O)[O-])c1 (configuration not stated) | inactive | 
CCC(=O)Nc1c(C#N)c2nc3ccccc3nc2n1-c1ccc(C)cc1 | inactive | 
NCC[C@@H]1CC[C@H](NC(=O)c2ccccc2F)[C@@H](CO)O1 | inactive | 
CC(=O)Nc1ccc(NC(=O)COC(=O)c2ccc([N+](=O)[O-])o2)cc1 | inactive | 

Structure (SMILES) | activity change, negative = inhibition (at 26 µM (top of the series)) | activity change, negative = inhibition (at 23.5 µM (top of the series))
COc1ccc(OC)c(N(CC(=O)Nc2ccccc2)S(C)(=O)=O)c1 | inactive | 
CCc1nc2c(OCc3ccc(C(=O)OC)cc3)cccn2c1N(C)C(=O)c1ccc(C)cc1 | inactive | 
S=c1[nH]c2cc(Cl)c3cccnc3c2o1 | inactive | 
Cc1ccn2c(=S)[nH]nc2c1 | inactive | 
COc1ccccc1C(=O)Nc1ccc2c(c1)OC[C@@H](C)N(CC1CC1)C[C@@H](C)[C@@H](OC)CN(C)C2=O | inactive | 
CC(C)(C)c1ccc(C(=O)Nc2ccc(S(=O)(=O)Nc3cnc4ccccc4n3)cc2)cc1 | inactive | 
O=c1nc2ccc(Cl)cn2c2ccc(S(=O)(=O)N3CCCCC3)cc12 | inactive | 
CCOCCCNC(=O)C1c2ccccc2Oc2ccccc21 | inactive | 
CCCN1C[C@H](C)[C@H](OC)CN(C)C(=O)c2ccc(NC(=O)c3ccccc3)cc2OC[C@@H]1C | inactive | 
C#CC(C)(C)NC(=O)c1ccc(-c2ccccc2F)cc1 | inactive | 
CCCC(=O)Nc1ccc2c(c1)OC[C@@H](C)NC[C@H](C)[C@@H](OC)CN(C)C2=O | inactive | 
Cc1ccc([N+](=O)[O-])cc1NC(=O)C(C)N1CCCCC1 (configuration not stated) | inactive | 
COc1ccccc1C#Cc1ccc2c(c1)O[C@@H](CN(C)C)[C@@H](C)CN([C@@H](C)CO)S2(=O)=O | inactive | 
CC(Nc1ccc2ccccc2c1)C(=O)N/N=C/c1ccncc1 (configuration not stated) | inactive | 
CO[C@@H]1CN(C)C(=O)c2ccc(NC(=O)C3CC3)cc2OC[C@@H](C)N(C)C[C@H]1C | inactive | 
COC(=O)C[C@@H]1CC[C@H](NC(=O)c2ccc3c(c2)OCO3)[C@@H](CO)O1 | inactive | 
CCOc1ccc(S(=O)(=O)NCCC(=O)NCC2(N3CCCCC3)CCCCC2)cc1 | inactive | 
Cc1ccc(C(=O)NCC(=O)N(C)Cc2ccccc2C)s1 | inactive | 
CCNC(=S)N1CCCCC1CO (configuration not stated) | inactive | 
COCC(=O)N1[C@@H]2CN(C(=O)Nc3ccccc3F)c3ccccc3[C@@H]2[C@@H]1CO |  | inactive
COc1ccc(/C=N/NC(=O)c2ccccc2O)cc1CN1CCOCC1 | inactive | 
O=C(NCCCO)c1cc([N+](=O)[O-])cc2c1C=Cc1ccccc1O2 | inactive | 
COc1ccc(S(=O)(=O)N2CCOC23CCN(S(=O)(=O)c2ccc(C)cc2)CC3)cc1 | inactive | 
Cc1cccc(C(=O)Nc2cccc(NC(=O)c3ccccc3)c2)c1 | inactive | 
CCN(Cc1ccccc1OC)CC1CCCN(CCc2cccc(OC)c2)C1 (configuration not stated) | inactive | 
Cc1cccc(-n2c(C)nc3cc(C(=O)NCCN4CCOCC4)ccc32)c1 | inactive | 

Structure (SMILES) | activity change, negative = inhibition (at 26 µM (top of the series)) | activity change, negative = inhibition (at 23.5 µM (top of the series))
Cc1ccc(Nc2ncnc3sccc23)c(C)c1 | inactive | 
Cc1cc(-n2nnc3ccccc32)nc2ccccc12 | inactive | 
CC(C)C(=O)N1CCN(c2ccccc2NC(=O)c2cccc3ccccc23)CC1 | inactive | 
CCOc1ccc(N2CC(C(=O)NCC(=O)Nc3ccc(F)c(F)c3F)CC2=O)cc1 (configuration not stated) | inactive | 
CSc1ccccc1NC(=O)Nc1ccccc1 | inactive | 
CO[C@H]1CN(C)C(=O)c2ccc(NC(=O)C3CC3)cc2OC[C@@H](C)N(Cc2cccc(F)c2)C[C@H]1C | inactive | 
NNC(=O)CC1=NNC(=O)C1 | inactive | 
Oc1ccc(/C=N/N=C/c2ccc(O)c(O)c2)cc1O | inactive | 
COc1ccccc1CNC(=O)COC(=O)c1ccc([N+](=O)[O-])o1 | inactive | 
O=C(COC(=O)c1ccc([N+](=O)[O-])o1)Nc1ccc2c(c1)OC(F)(F)O2 | inactive | 
COc1cccc(CN(C)CC(O)COc2cc(Cl)ccc2Cl)c1 (configuration not stated) | inactive | 
COc1cc2[nH]c(Cl)c([N+](=O)[O-])c2cc1OC | inactive | 
O=S(=O)(NCc1cccnc1)c1ccc(Cl)cc1 | inactive | 
O=C(CNC(=O)c1ccccc1F)N/N=C/c1ccc2c(c1)OCO2 | inactive | 
CCCN1C[C@H](C)[C@H](OC)CN(C)C(=O)c2ccc(NC(=O)CC)cc2OC[C@H]1C | inactive | 
O=C1Nc2cc(Cl)cnc2N2CCCC12 (configuration not stated) | inactive | 
O=C(NC(=O)c1csnn1)Nc1ccccc1Cl | inactive | 
O=[N+]([O-])c1ccccc1S(=O)(=O)Nc1nc2ccccc2s1 | inactive | 
O=C(O)c1cccc(S(=O)(=O)NNc2ccccc2C(F)(F)F)c1 | inactive | 
O=C1Cc2cc(S(=O)(=O)N3CCN(c4ccc(C(=O)O)cc4)CC3)ccc2N1 | inactive | 
CCCN1C[C@H](C)[C@@H](OC)CN(C)C(=O)c2ccc(NC(=O)CC)cc2OC[C@@H]1C | inactive | 
C[C@@H]1CN([C@@H](C)CO)C(=O)Cc2cc(N(C)C)ccc2O[C@@H]1CN(C)Cc1ccccc1 | inactive | 
COc1ccccc1NC(=O)C(C)OC(=O)CCC1CCCCC1 (configuration not stated) | inactive | 
O=C(N/N=C/c1ccc(O)cc1O)C(=O)N/N=C/c1ccc(O)cc1O | inactive | 
CCOc1ccc(Nc2nc(N3CCOCC3)nc(N3CCOCC3)n2)cc1 | inactive | 
